Data reported in PMC7948490, “Mechanochemical properties of human myosin-1C are modulated by isoform-specific differences in the N-terminal extension” (The Journal of Biological Chemistry, 2020).

Legend:
[1] = biological target: T1, Myo1C^35-ΔTH1 (acto·Myo1C^35-ΔTH1) (Homo sapiens, UniProt O00159); assay: stopped-flow, ADP inhibition of ATP-induced dissociation from pyrene-labeled F-actin, slow-phase amplitude fraction; assay type: binding
T1 construct: 35-residue N-terminal extension + motor domain + 3 IQ motifs + post-IQ; C-terminal 176-residue TH1 domain replaced by C-terminal octa-histidine tag; coproduced with human calmodulin in baculovirus/Sf9; with Calmodulin-1; Actin, alpha skeletal muscle (Gallus gallus, chicken pectoralis major muscle F-actin, pyrene-labeled)
T1 sequence (O00159 1-887, stated change not applied): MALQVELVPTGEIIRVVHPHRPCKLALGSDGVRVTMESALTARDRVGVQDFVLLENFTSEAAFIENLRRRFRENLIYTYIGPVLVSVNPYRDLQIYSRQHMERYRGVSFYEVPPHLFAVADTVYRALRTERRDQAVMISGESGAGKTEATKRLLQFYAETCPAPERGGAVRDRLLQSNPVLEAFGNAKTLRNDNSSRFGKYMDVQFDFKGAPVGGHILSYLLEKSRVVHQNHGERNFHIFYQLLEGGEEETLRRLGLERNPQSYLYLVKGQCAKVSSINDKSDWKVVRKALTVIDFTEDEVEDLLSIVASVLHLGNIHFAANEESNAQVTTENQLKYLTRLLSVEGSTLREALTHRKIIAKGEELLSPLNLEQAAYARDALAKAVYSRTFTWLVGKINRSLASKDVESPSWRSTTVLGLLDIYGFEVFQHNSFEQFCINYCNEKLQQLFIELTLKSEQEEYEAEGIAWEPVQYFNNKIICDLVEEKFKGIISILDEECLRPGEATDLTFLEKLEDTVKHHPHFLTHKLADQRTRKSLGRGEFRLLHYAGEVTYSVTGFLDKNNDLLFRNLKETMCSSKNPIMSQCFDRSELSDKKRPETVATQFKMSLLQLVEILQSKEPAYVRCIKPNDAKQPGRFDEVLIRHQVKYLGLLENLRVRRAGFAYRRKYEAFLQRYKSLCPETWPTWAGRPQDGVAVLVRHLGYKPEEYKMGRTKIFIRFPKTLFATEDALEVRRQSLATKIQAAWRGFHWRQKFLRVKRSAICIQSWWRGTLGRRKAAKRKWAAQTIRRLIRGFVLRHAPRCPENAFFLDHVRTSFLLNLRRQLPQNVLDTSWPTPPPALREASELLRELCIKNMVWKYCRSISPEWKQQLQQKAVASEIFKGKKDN
Text: stopped-flow, ADP inhibition of ATP-induced dissociation from pyrene-labeled F-actin, slow-phase amplitude fraction on Myo1C^35-ΔTH1 (acto·Myo1C^35-ΔTH1)

[2] = biological target: T1, Myo1C^35-ΔTH1 (acto·Myo1C^35-ΔTH1); assay: stopped-flow, ATP-induced dissociation from pyrene-labeled F-actin, fast phase; assay type: binding
Text: stopped-flow, ATP-induced dissociation from pyrene-labeled F-actin, fast phase on Myo1C^35-ΔTH1 (acto·Myo1C^35-ΔTH1)

| Kd [1] | Kd [2] | SMILES |
| --- | --- | --- |
| 0.23 ± 0.03 µM | – | Nc1ncnc2c1ncn2[C@@H]1O[C@H](COP(=O)(O)OP(=O)(O)O)[C@@H](O)[C@H]1O [ADP] |
| – | 405 ± 79 µM | Nc1ncnc2c1ncn2[C@@H]1O[C@H](COP(=O)(O)OP(=O)(O)OP(=O)(O)O)[C@@H](O)[C@H]1O [ATP] |
